Experimental data published in publication PMC8433497, “DNA-encoded chemistry technology yields expedient access to SARS-CoV-2 M^pro inhibitors” (Proceedings of the National Academy of Sciences of the …, 2021).
Entries after “also recorded” stand apart in the source; their conditions may differ. Where two headings read alike, the source gives them in different places.

Columns and labels:
SARS-CoV-2 M^pro-His6 = SARS-CoV-2 M^pro-His6 (Severe acute respiratory syndrome coronavirus 2, UniProt P0DTD1); test: M^pro-His6 enzyme inhibition assay, fluorescent peptide reporter; format: biochemical; settings: for M^pro inhibitory activity (in words): analogs compared with CDD-1713
SARS-CoV-2 M^pro = SARS-CoV-2 M^pro (Severe acute respiratory syndrome coronavirus 2, UniProt P0DTD1); test: M^pro (His tag removed) enzyme inhibition assay, fluorescent peptide reporter; format: biochemical; settings: Table S1, 25 nM enzyme, 15 µM fluorescent peptide, Morrison equation, SE from triplicates
[1] = Metabolic stability in mouse liver microsomes; format: in vitro ADME; settings: for half-life at 2 μM: 0.5 mg protein/ml, 2.0 uM compound, 1.0 mM NADPH, read-out: MLM t1/2
Protocol: (§1) The samples were collected at specific time points, 0, 30, and 60 min, in duplicate. The reactions were terminated by adding an equivalent volume of ice-cold methanol and vortexed. […] Three microliters […] of the supernatant was analyzed by UHPLC-Q Exactive Orbitrap MS (Thermo Fisher Scientific) equipped with 50-mm × 4.6-mm column (XDB C-18; Agilent Technologies). The column temperature was maintained at 40 °C. The flow rate was at 0.3 mL/min with a 30% mobile phase (acetonitrile containing 0.1% formic acid). Q Exactive MS was operated in positive mode with electrospray ionization. Ultrapure nitrogen was applied as the sheath (45 arbitrary units), auxiliary (10 arbitrary units), sweep (1.0 arbitrary unit), and the collision gas. […] Mass Spectrometry (MS) data were acquired from 80 to 1,200 Da in profile mode.

[2] = Metabolic stability in human liver microsomes; format: in vitro ADME; settings: for half-life at 2 μM: 0.5 mg protein/ml, 2.0 uM compound, 1.0 mM NADPH, read-out: HLM t1/2
Protocol: as §1

[3] = test system: SARS-CoV-2 main protease (M^pro); test: Protein thermal shift stability assay (thermofluor); format: binding; settings: 1.5 μM protease, various compound concentrations, SYPRO Orange
Protocol: The dye SYPRO Orange (Thermo Fisher Scientific) was used to perform the protein thermal shift assay. The assay was set up on a 384-well Roche plate where the SARS-CoV-2 main protease at a concentration of 1.5 μM was incubated with the test compound at various concentrations and SYPRO Orange dye at 5× in a 10 μL reaction. The melting curve experiment and data analysis were run on a Roche Lightcycler 480 real-time PCR instrument.

HepG2 cells [4] = test: HepG2 cell uptake assay; format: in vitro ADME; settings: 10 μM, 2 h, 37 °C
Protocol: (§2) The HepG2 cells maintained in DMEM (containing 1 g/L glucose, 10% fetal bovine serum [FBS], and 1% penicillin/streptomycin) were seeded in a 12-well plate (a final density of 5 × 10^5 per well) for cell uptake assay and 96-well plate for cytotoxicity assay (a final density of 5 × 10^4 per well). The plate was incubated at 37 °C for 24 h.
The cells in 12-well plate were treated with CDD-1713 or CDD-1976 (final concentration: 10 μM). The plate was incubated at 37 °C for another 2 h. The medium in the plate was decanted and the cells were rinsed with 1 mL of 1× DPBS three times, then 0.5 mL of 0.25% trypsin was added to each well and incubated for 3.5 min (at 37 °C). One milliliter of complete medium was added to each well to quench the reaction. After spinning at 350 × g for 5 min, the cell pellet was reconstituted in MeOH/H2O (vol/vol 1/1) and CDD-1713 or CDD-1976 was extracted from 100 μL of the resulting mixture with 100 μL of ice-cold methanol. The mixtures were centrifuged at rcf 15,000 for 15 min. Three microliters of the supernatant was analyzed by UHPLC-Q Exactive Orbitrap MS (Thermo Fisher Scientific) equipped with a 50-mm × 4.6-mm column (XDB C-18; Agilent Technologies). The column temperature was set at 40 °C. Ultrapure nitrogen was applied as the sheath (45 arbitrary units), auxiliary (10 arbitrary units), sweep (1.0 arbitrary unit), and the collision gas. […]

[5] = HepG2 cytotoxicity assay (XTT); format: cell-based; settings: human, 100 µM group, XTT, normalized to DMSO, read-out: HepG2 cell viability
Protocol: as §2
(§3) The cells in 96-well plate were treated by CDD-1713 or CDD-1976 at the final concentrations of 0, 10, 20, 50, or 100 μM (n = 3 replicates per concentration level per drug). After 24-h incubation at 37 °C, the medium in the plate was decanted and 100 μL of Dulbecco’s modified Eagle’s medium (DMEM) (without phenol red) was added into each well. The cell variability was measured using XTT method. The absorbance at 475 nm was read with a Tecan M1000 pro machine, with a reference wavelength of 660 nm. The reading was normalized by vehicle with final 0.5% dimethyl sulfoxide (DMSO) for each drug.

HepG2 cells [6] = test: HepG2 cytotoxicity assay (XTT); format: cell-based; settings: 24 h; for cytotoxicity in HepG2 cells (in words): 100 μM
Protocol: as §2, §3

[7] = Plasma stability assay, human plasma; format: in vitro ADME; settings: 10 µM, 37 °C, after 2-h incubation
Protocol: (§4) Compound CDD-1713 and CDD-1976 were incubated in human and mouse plasma, respectively, at a concentration of 10 µM in duplicate (n = 2) at 37 °C. At time points of 0, 30, 60, and 120 min, 15 µL of sample were taken out and the reactions terminated by adding 75 µL of ice-cold methanol. The reaction mixtures were then vortexed for 30 s and centrifuged at rcf 15,000 for 15 min. Following centrifugation, 3 μL of the supernatant was analyzed using UHPLC-Q Exactive Orbitrap MS. The percentage of test compound remaining at the individual time points relative to the 0-min sample was then determined.

[8] = Plasma stability assay, mouse plasma; format: in vitro ADME; settings: 10 µM, 37 °C, after 2-h incubation
Protocol: as §4

[9] = test system: SARS-CoV-2 (USA_WA1/2020 isolate); test: RTCA assay for in vitro inhibition of SARS-CoV-2 replication in VERO E6 cells; format: cell-based; settings: live SARS-CoV-2, 75 h; for IC50, SARS-CoV-2 induced cell death (normalized cell index, RTCA): duplicates
renin = target: T1, renin (Homo sapiens, UniProt P00797); test: Renin assay; format: biochemical; settings: best off-target inhibition observed; read-out: estimated Kiapp, renin
T1 construct: purchased BPS Bioscience 80211
T1 sequence (P00797 67-406): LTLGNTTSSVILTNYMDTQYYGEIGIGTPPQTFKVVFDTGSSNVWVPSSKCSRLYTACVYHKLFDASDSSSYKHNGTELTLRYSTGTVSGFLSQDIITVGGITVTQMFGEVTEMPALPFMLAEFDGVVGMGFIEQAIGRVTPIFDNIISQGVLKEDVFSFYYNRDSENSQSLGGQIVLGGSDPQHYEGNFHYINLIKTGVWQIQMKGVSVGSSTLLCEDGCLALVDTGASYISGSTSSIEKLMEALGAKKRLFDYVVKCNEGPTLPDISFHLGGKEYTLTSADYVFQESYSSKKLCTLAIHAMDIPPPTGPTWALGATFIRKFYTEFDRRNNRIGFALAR
Protocol: Renin assay: A kit from BPS Bioscience (80211) was used with adjustments to the manufacturer’s protocol as follows. The reaction was run at RT in black 96 half-area plates in a total reaction volume of 50 μL containing 0.01% Tween-20. Instead of measuring endpoints at 30 min the increase in fluorescence (Ex 490 nm, Em 520 nm) per second (RFU/s) was obtained from linear progress curves over 10 min. Fractional activities were calculated from reactions with no inhibitors. Aliskiren was used as a positive control.

[10] = Table S1, 25 nM enzyme, 15 µM fluorescent peptide, Morrison equation, SE from triplicates
[11] = read-out: Ki against M^pro (Fig. 2; Fig. 2B M^pro-His-tag), 25 nM enzyme, 15 µM fluorescent peptide, Morrison equation, inactive = less than 90% inhibition at 25 µM
[12] = read-out: Mpro-His Ki, Table S1, 25 nM enzyme, 15 µM fluorescent peptide, Morrison equation, SE from triplicates

Compound: COc1cc(-c2cccc3[nH]ncc23)cc(C(=O)CO)c1OCC(=O)N(C)C [CDD-1886]
- Mpro-His Ki (SARS-CoV-2 M^pro-His6; [10]): Inactive
- Mpro Ki (SARS-CoV-2 M^pro): Inactive

Compound: Cc1nnc2n1-c1ccc(Cl)cc1C(c1ccccc1)=NC2 [Alprazolam, reference compound]
- half-life at 2 μM [1]: 296 min
- half-life at 2 μM [2]: 832 min

Compound: COc1cc(-c2cccc3[nH]ncc23)cc(C=O)c1OCC(=O)N1CCC(Oc2cccc(C(=O)N(C)C)c2)C1 (stereo not shown) [CDD-1714]
- Ki (SARS-CoV-2 M^pro-His6): 20 nM
- Ki (SARS-CoV-2 M^pro-His6; [11]): 20 ± 3 nM
- Ki (SARS-CoV-2 M^pro-His6; [12]): 20 ± 3 nM
- Ki (SARS-CoV-2 M^pro; read-out: Mpro Ki): 24 ± 3 nM
- stabilization of M^pro (temperature shift) [3]: stabilized; also recorded: concentration-dependent stabilization

Compound: COc1cc(-c2cccc3[nH]ncc23)cc(C(C)=O)c1OCC(=O)N(C)C [CDD-1883]
- Mpro-His Ki (SARS-CoV-2 M^pro-His6; [10]): Inactive
- Mpro Ki (SARS-CoV-2 M^pro): Inactive

Compound: CN(C)C(=O)COc1ccc(-c2cccc3[nH]ncc23)cc1C#N [CDD-2038]
- Mpro-His Ki (SARS-CoV-2 M^pro-His6; [10]): Inactive
- Mpro Ki (SARS-CoV-2 M^pro): Inactive

Compound: COc1cc(-c2cccc3[nH]ncc23)cc(CO)c1OCC(=O)N(C)C [CDD-1776]
- Mpro-His Ki (SARS-CoV-2 M^pro-His6; [10]): Inactive
- M^pro inhibitory activity (in words) (SARS-CoV-2 M^pro-His6): completely abolished the activity
- Mpro Ki (SARS-CoV-2 M^pro): Inactive

Compound: CN(C)C(=O)COc1ccc(-c2cccc3[nH]ncc23)cc1C=O [CDD-1976]
- Ki (SARS-CoV-2 M^pro-His6): 37 nM
- M^pro inhibitory activity (in words) (SARS-CoV-2 M^pro-His6): better inhibition compared to CDD-1713
- Ki (SARS-CoV-2 M^pro-His6; [11]): 37 ± 4 nM
- Ki (SARS-CoV-2 M^pro-His6; [12]): 37 ± 4 nM
- stabilization of M^pro (temperature shift) [3]: stabilized; also recorded: concentration-dependent stabilization; also recorded: most pronounced temperature shift
- metabolic stability in mouse liver microsomes (in words) [1]: more stable in human liver microsomes, but not mouse
- half-life at 2 μM [1]: 10.2 min
- metabolic stability in human liver microsomes (in words) [2]: more stable
- half-life at 2 μM [2]: 41.4 min
- cell permeability in uptake assay of HepG2 cells (HepG2 cells [4]): moderate cell permeability
- viability at 24 h, 100 µM ([5]; HepG2 cells): > 80%
- cytotoxicity in HepG2 cells (in words) (HepG2 cells [6]): no obvious cytotoxicity
- IC50 (HepG2 cells [6]; Homo sapiens, HepG2, XTT assay, read-out: IC50, HepG2 cell viability): > 100000 nM
- compound remained in human plasma [7]: 80%
- compound remained in mouse plasma [8]: 80%
- effect on SARS-CoV-2 induced cell death (in words) [9]: reduced cell death in a dose-dependent manner

Compound: COc1cc(-c2cccc3[nH]ncc23)ccc1OCC(=O)N(C)C [CDD-1793]
- Mpro-His Ki (SARS-CoV-2 M^pro-His6; [10]): Inactive
- M^pro inhibitory activity (in words) (SARS-CoV-2 M^pro-His6): completely abolished the activity
- Mpro Ki (SARS-CoV-2 M^pro): Inactive

Compound: COc1cc(-c2cccc3c2cnn3C)cc(C=O)c1OCC(=O)N(C)C [CDD-1847]
- Mpro-His Ki (SARS-CoV-2 M^pro-His6; [10]): Inactive
- M^pro inhibitory activity (in words) (SARS-CoV-2 M^pro-His6): completely lost activity
- Mpro Ki (SARS-CoV-2 M^pro): Inactive
- effect on SARS-CoV-2 induced cell death (in words) [9]: unable to prevent cell death
- IC50, SARS-CoV-2 induced cell death (normalized cell index, RTCA) [9]: inactive

Compound: COc1cc(-c2cccc3[nH]ncc23)cc(C=O)c1OCC(=O)N(C)C [CDD-1713]
- Ki (SARS-CoV-2 M^pro-His6; 25 nM enzyme, 15 µM fluorescent peptide, Morrison equation, inactive = less than 90% inhibition at 25 µM, read-out: Ki against M^pro (Fig. 2; Fig. 2B M^pro-His-tag)): 45 ± 3 nM
- Ki (SARS-CoV-2 M^pro-His6; Table S1, 25 nM enzyme, 15 µM fluorescent peptide, Morrison equation, SE from triplicates, read-out: Mpro-His Ki): 45 ± 3 nM
- Ki (SARS-CoV-2 M^pro-His6; read-out: Ki against M^pro (Fig. 2; Fig. 2B M^pro-His-tag)): 45 nM
- stabilization of M^pro (temperature shift) [3]: stabilized; also recorded: concentration-dependent stabilization
- Ki (renin): 53000 nM
- metabolic stability in mouse liver microsomes (in words) [1]: metabolically labile
- half-life at 2 μM [1]: 8.4 min
- metabolic stability in human liver microsomes (in words) [2]: metabolically labile
- half-life at 2 μM [2]: 15.3 min
- cell permeability in uptake assay of HepG2 cells (HepG2 cells [4]): moderate cell permeability
- viability at 24 h, 100 µM [5]: > 80%
- cytotoxicity in HepG2 cells (in words) (HepG2 cells [6]): no obvious cytotoxicity
- compound remained in human plasma [7]: 80%
- compound remained in mouse plasma [8]: 80%
- effect on SARS-CoV-2 induced cell death (in words) [9]: reduced cell death in a dose-dependent manner
- IC50, SARS-CoV-2 induced cell death (normalized cell index, RTCA) [9]: 5190 nM

Compound: CCOC(=O)/C=C/c1cc(-c2cccc3[nH]ncc23)cc(OC)c1OCC(=O)N(C)C [CDD-1971]
- Mpro-His Ki (SARS-CoV-2 M^pro-His6; [10]): Inactive
- Mpro Ki (SARS-CoV-2 M^pro): Inactive
